Source: patent US8410130B2, “Synthesis of 8H-3A-aza-cyclopenta [A ]indenes and 5,10-dihydropyrrolo[1,2-B]isoquinolines derivatives and their use as antitumor therapeutic agents” (Academia Sinica, priority 2007, dated 2013)
Like-named read-outs stand apart in the source and are kept apart here.

Key:
[1] = tested on: CCRF-CEM human lymphoblastic leukemia cells; test: In vitro cytotoxicity, XTT assay, 72-hr incubation; assay type: cell-based
From the text: (§1) Human colon carcinoma HCT-116 cells, human prostate adenocarcinoma PC-3 and adenocarcinoma SK-OV-3 cells were obtained from American Type Culture Collection (ATCC, Rockville, Md.). Human mammary carcinoma (MX-1) tumor cells were obtained from MSKCC cell bank. The CCRF-CEM human lymphoblastic leukemia cells and their vinblastine resistant subline (CCRF-CEM/VBL, 680-fold resistance in vitro) were obtained from Dr. William Beck of the University of Illinois, Chicago, and CCRF-CEM/Taxol (330-fold resistance in vitro). Resistant cells CCRF-CEM/taxol were produced by exposing the parent cells to increasing sublethal concentration (IC50-IC90) of paclitaxel for six months.
(§2) In preparation for in vitro cytotoxicity assays, cells were cultured at an initial density 2-5×10^4 cells per milliliter. They were maintained in a 5% CO2-humidified atmosphere at 37° C. in RPMI medium 1640 (GIBCO/BRL) containing penicillin (100 units/mL), streptomycin (100 μg/mL, GIBCO/BRL), and 5% heat-inactivated FBS. For cells grown in suspension (such as CCRF-CEM and its sublines), cytotoxicity was measured, by using XTT microculture method in 96-well microtiter plates (Scudiero D A et al., Cancer Res. 1988, 48, 4827-4833). For solid tumor cells growing in a monolayer (such as MX-1 and HCT-116), cytotoxicity of the drug was determined, in duplicate, in 96-well microtiter plates by using the sulforhodamine B method (Skehan P et al., J. Natl. Cancer Inst 1990, 82, 1107-1112). For both methods, the absorbance of each well was measured with a microplate reader (Power Wave XS, Bio-Tek, Winooski, Vt.) after 72-hr incubation as described previously (Chou T-C et al., Proc. Natl. Acad. Sci. USA 2001, 98, 8113-8118). Dose-effect relationship data from 6 to 7 concentrations of each drug, in duplicate, were analyzed by using a computer program (Chou T-C et al., ComboSyn, Inc., Paramus, N J. 2005) based on the median-effect principle and plot (Chou T-C et al., Adv. Enzyme Regul. 1984, 22, 27-55; Chou T-C, Pharmacol. Rev. 2006, 58, 621-681).
(§3) The IC50 is defined by the concentration required to inhibit tumor cell growth by 50%. […] The growth inhibition of the compounds disclosed herein against human lymphoblastic leukemic cells (CCRF-CEM) and its drug-resistant sublines (resistant to vinblastine and taxol, CCRF-CEM/VBL and CCRF-CEM/taxol, respectively) is also shown in Table 5. […] Thus, the compounds disclosed herein are effective against multiple drug resistant tumors.

[2] = tested on: CCRF-CEM/VBL; test: In vitro cytotoxicity, XTT assay, vinblastine resistant subline; assay type: cell-based, human; conditions: for IC50: XTT assay, 72-hr incubation; for fold of cross-resistant, CCRF-CEM/VBL vs IC50 of the parent cell line: numbers in brackets
From the text: as §1, §2, §3

[3] = tested on: CCRF-CEM/Taxol; test: In vitro cytotoxicity, XTT assay, taxol resistant subline; assay type: cell-based, human; conditions: for IC50: XTT assay, 72-hr incubation; for fold of cross-resistant, CCRF-CEM/Taxol vs IC50 of the parent cell line: numbers in brackets
From the text: as §1, §2, §3

[4] = tested on: Human colon carcinoma HCT-116 cells; test: In vitro cytotoxicity, sulforhodamine B (SRB) assay; assay type: cell-based
From the text: as §1, §2, §3

[5] = tested on: Human mammary carcinoma (MX-1) tumor cells; test: as above; assay type: cell-based; conditions: 72-hr incubation
From the text: as §1, §2, §3

[6] = Homo sapiens, HCT-116, 72-hr incubation

Row | SMILES | IC50 [1] | IC50 [2] | fold of cross-resistant, CCRF-CEM/VBL vs IC50 of the parent cell line [2] | IC50 [3] | fold of cross-resistant, CCRF-CEM/Taxol vs IC50 of the parent cell line [3] | IC50 ([4]; 72-hr incubation) | IC50 [5] | IC50 ([1]; Homo sapiens, CCRF-CEM) | IC50 ([2]; Homo sapiens, CCRF-CEM) | IC50 ([3]; Homo sapiens, CCRF-CEM) | IC50 [4, 6] | IC50 ([5]; Homo sapiens)
1 | OCc1c(CO)c(-c2ccc(F)c(F)c2)n2c1Cc1ccccc1-2 [DA-1025, (3-(3,4-Diflourophenyl)-2-hydroxymethyl-8H-3a-aza-cyclopenta[a]inden-1-yl)methanol] | 4910 nM | 7270 nM | [1.98x] | 7780 nM | [1.6x] | 10800 nM | 7000 nM | – | – | – | – | –
2 | OCc1c(CO)c(-c2ccc(F)cc2)n2c1Cc1ccccc1-2 [DA-1024, (3-(4-Flourophenyl)-2-hydroxymethyl-8H-3a-aza-cyclopenta[a]inden-1-yl)methanol] | 4250 nM | 4070 nM | [0.96x] | 11000 nM | [2.6x] | 8070 nM | 22300 nM | – | – | – | – | –
3 | OCc1c(CO)c(-c2ccc(Cl)cc2)n2c1Cc1ccccc1-2 [DA-1003, (3-(4-Chlorophenyl)-2-hydroxymethyl-8H-3a-aza-cyclopenta[a]inden-1-yl)methanol] | – | – | [0.59x] | – | [1.00x] | – | – | 4270 nM | 2530 nM | 4220 nM | 5590 nM | 6130 nM
4 | CNC(=O)OCc1c(COC(=O)NC)c(-c2ccc(OC)cc2)n2c1Cc1ccccc1C2 [DA-1109, methylcarbamic acid 3-(4-methoxyphenyl)-2-methylcarbamoyloxymethyl-5,10-dihydr-pyrrolo[1,2-b]isoquinolin-1-ylmethyl ester] | 184 nM | 111 nM | [0.60x] | 161 nM | [0.88x] | 1110 nM | 1310 nM | – | – | – | – | –
5 | OCc1c(CO)c(-c2ccc(F)c(F)c2)n2c1Cc1ccccc1C2 [DA-1112, [3-(3,4-Difluorophenyl)-2-hydroxymethyl-5,10-dihydropyrrolo[1,2-b]isoquinolin-1-yl]methanol] | – | – | [0.89x] | – | [0.66x] | – | – | 1140 nM | 1010 nM | 745 nM | 2920 nM | 6670 nM
6 | CNC(=O)OCc1c(COC(=O)NC)c(-c2ccc(F)cc2)n2c1Cc1ccccc1-2 [DA-1026, Methylcarbamic acid 3-(4-flourophenyl)-2-methylcarbamoyloxymethyl-8H-3a-aza-cyclopenta[a]inden-1-ylmethyl ester] | 137 nM | 307 nM | [2.2x] | 284 nM | [2.1x] | 397 nM | 744 nM | – | – | – | – | –
7 | OCc1c(CO)c(-c2ccc(Cl)cc2)n2c1Cc1ccccc1C2 [DA-1116, [3-(4-Chlorophenyl)-2-hydroxymethyl-5,10-dihydropyrrolo[1,2-b]isoquinolin-1-yl]methanol] | – | – | [0.91x] | – | [1.00x] | – | – | 600 nM | 543 nM | 601 nM | 2640 nM | 3270 nM
8 | CCc1c(COC(=O)NC)c(COC(=O)NC)c2n1-c1ccccc1C2 [DA-1101, methyl carbamic acid 3-ethyl-2-methyl carbamoyloxymethyl-8H-3a-aza-cyclopenta[a]inden-1-ylmethyl ester] | – | – | [1.15x] | – | [1.46x] | – | – | 68 nM | 78 nM | 99 nM | 707 nM | 670 nM
9 | COc1cccc(OC)c1-c1c(CO)c(CO)c2n1-c1ccccc1C2 [DA-1126, (3-(2,6-Dimethoxyphenyl)-2-hydroxymethyl-8H-3a-aza-cyclopenta[a]inden-1-yl)methanol] | – | – | [0.03x] | – | [0.09x] | – | – | 8140 nM | 251 nM | 741 nM | 43700 nM | 25500 nM
10 | CNC(=O)OCc1c(COC(=O)NC)c(-c2ccccc2)n2c1Cc1ccccc1-2 [DA-1022, Methylcarbamic acid 2-methylcarbamoyloxymethyl-3-phenyl-8H-3a-aza-cyclopenta[a] inden-1-ylmethylester] | – | – | [4.5x] | – | [1.6x] | – | – | 357 nM | 1620 nM | 556 nM | 761 nM | 5920 nM
11 | COc1ccc(-c2c(CO)c(CO)c3n2-c2ccccc2C3)cc1OC [DA-1097, (3-(3,4-Dimethoxyphenyl)-2-hydroxymethyl-8H-3a-aza-cyclopenta[a]inden-1-yl)methanol] | – | – | [1.1x] | – | [1.87x] | – | – | 1040 nM | 1140 nM | 1950 nM | 4090 nM | 11100 nM
12 | CNC(=O)OCc1c(COC(=O)NC)c(-c2ccc(OC)cc2)n2c1Cc1cc(OC)ccc1-2 [DA-1131, methylcarbamic acid 6-methoxy-3-(4-methoxyphenyl)-2-methylcarbamoyl-oxymethyl-8H-3a-aza-cyclopenta[a]inden-1-ylmethyl ester] | – | – | [1.03x] | – | [1.55x] | – | – | 62 nM | 63.9 nM | 96.2 nM | 455 nM | 878 nM
13 | CNC(=O)OCc1c(COC(=O)NC)c(-c2ccc(Cl)cc2)n2c1Cc1ccccc1C2 [DA-1117, methylcarbamic acid 3-(4-chlorphenyl)-2-methylcarbamoyloxymethyl-5,10-dihydropyrrolo[1,2-b]isoquinolin-1-ylmethyl ester] | 191 nM | 208 nM | [1.09x] | 216 nM | [1.13x] | 356 nM | 1170 nM | – | – | – | – | –
14 | COc1ccc(-c2c(CO)c(CO)c3n2-c2ccccc2C3)cc1 [DA-1005, (2-Hydroxymethyl-3-(4-methoxyphenyl)-8H-3a-aza-cyclopenta[a]inden-1-yl)methanol] | – | – | [1.4x] | – | [1.4x] | – | – | 1160 nM | 1670 nM | 1660 nM | 5830 nM | 10800 nM
15 | OCc1c(CO)c(-c2ccccc2)n2c1Cc1ccccc1-2 [DA-1011, (2-hydroxymethyl-3-phenyl-8H-3a-azacyclopenta[a]inden-1-yl)-methanol] | – | – | [0.85x] | – | [0.89x] | – | – | 252 nM | 213 nM | 224 nM | 1850 nM | 1350 nM
16 | COc1ccc(-c2c(CO)c(CO)c3n2-c2ccc(OC)cc2C3)cc1 [DA-1130, (2-hydroxymethyl-6-methoxy-3-(4′-methoxyphenyl)-8H-3a-aza-cyclopenta[a]inden-1-yl)methanol] | 118 nM | 61 nM | [0.52x] | 130 nM | [1.10x] | 610 nM | 1520 nM | – | – | – | – | –
17 | CNC(=O)OCc1c(COC(=O)NC)c(-c2cc(OC)c(OC)c(OC)c2)n2c1Cc1ccccc1-2 [DA-1129, Methylcarbamic acid 3-(3,4,5-trimethoxyphenyl)-2-methylcarbamoyloxymethyl-8H-3a-aza-cyclopenta[a]inden-1-ylmethyl ester] | – | – | [0.71x] | – | [1.21x] | – | – | 11800 nM | 8400 nM | 14300 nM | 1830 nM | 7250 nM
